According to ChEMBL document CHEMBL1141920, “Substituted aminobenzimidazole pyrimidines as cyclin-dependent kinase inhibitors” (Bioorg Med Chem Lett, 2005):
Where “and” joins values, the source holds several entries; their conditions need not be identical. Identical values can stand only once.

How the values were obtained:
[1] = biological target: Cyclin-dependent kinase 1 (Homo sapiens, UniProt P06493); experiment: Inhibitory concentration against Cyclin dependent kinase 1
[2] = Inhibitory concentration against Mitogen-activated protein kinase p38; design: species or system Homo sapiens
[3] = Inhibitory concentration against Platelet-derived growth factor receptor
[4] = biological target: Mitogen-activated protein kinase 3 (Homo sapiens, UniProt P27361); experiment: Inhibitory concentration against Extracellular signal-regulated kinase 1
Chain of Mitogen-activated protein kinase 3 (P27361 whole entry): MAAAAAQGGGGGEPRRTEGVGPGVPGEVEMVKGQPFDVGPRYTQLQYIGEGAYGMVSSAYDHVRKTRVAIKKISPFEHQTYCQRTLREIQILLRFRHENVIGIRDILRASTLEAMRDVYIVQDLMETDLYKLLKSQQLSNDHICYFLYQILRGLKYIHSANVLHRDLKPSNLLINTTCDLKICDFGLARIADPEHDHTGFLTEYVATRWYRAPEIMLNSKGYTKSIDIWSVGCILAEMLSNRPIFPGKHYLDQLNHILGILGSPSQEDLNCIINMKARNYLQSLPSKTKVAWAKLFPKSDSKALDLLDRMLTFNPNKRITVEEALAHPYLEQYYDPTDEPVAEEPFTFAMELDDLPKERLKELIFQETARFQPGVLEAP

[5] = Inhibitory concentration against Casein kinase 2
[6] = biological target: Cyclin-dependent kinase 4 (Homo sapiens, UniProt P11802); experiment: Inhibitory concentration against Cyclin dependent kinase 4
Chain of Cyclin-dependent kinase 4 (P11802 whole entry): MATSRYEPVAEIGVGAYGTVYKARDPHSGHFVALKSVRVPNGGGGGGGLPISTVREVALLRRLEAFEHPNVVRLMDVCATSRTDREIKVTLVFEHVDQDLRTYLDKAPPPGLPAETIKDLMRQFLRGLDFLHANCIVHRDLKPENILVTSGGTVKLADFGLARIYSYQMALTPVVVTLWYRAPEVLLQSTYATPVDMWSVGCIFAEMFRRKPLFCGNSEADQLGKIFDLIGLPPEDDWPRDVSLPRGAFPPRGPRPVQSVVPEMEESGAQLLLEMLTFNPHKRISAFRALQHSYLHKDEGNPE

[7] = Inhibitory concentration against Cyclin dependent kinase 2; design: species or system Homo sapiens

Chain of Cyclin-dependent kinase 1 (P06493 whole entry): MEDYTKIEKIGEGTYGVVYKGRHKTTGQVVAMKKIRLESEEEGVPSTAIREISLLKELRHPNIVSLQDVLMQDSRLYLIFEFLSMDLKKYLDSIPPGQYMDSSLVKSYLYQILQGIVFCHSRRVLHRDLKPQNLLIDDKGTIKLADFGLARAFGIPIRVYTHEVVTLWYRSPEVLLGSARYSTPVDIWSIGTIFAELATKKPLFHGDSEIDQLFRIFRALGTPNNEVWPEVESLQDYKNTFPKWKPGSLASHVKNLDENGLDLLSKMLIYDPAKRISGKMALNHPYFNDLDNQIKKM

In the case of `CC(C)Oc1nc(Nc2ccc3nc[nH]c3c2)ncc1C(F)(F)F`, the IC50 [1] is reported as 25 nM.

In the case of `FC(F)(F)c1ccc(Oc2nc(Nc3ccc4[nH]cnc4c3)ncc2C(F)(F)F)cc1`, the IC50 [1] is reported as > 1000 nM.

With `CC(C)COc1nc(Nc2ccc3[nH]cnc3c2)ncc1C(F)(F)F` the IC50 [1] was 2 nM.

`Clc1cccc(CNc2nc(Nc3ccc4[nH]cnc4c3)ncc2Br)c1Cl` gave an IC50 [1] of 126 nM.

In the case of `c1cc(Nc2ccc3[nH]cnc3c2)nc(Nc2ccc3[nH]cnc3c2)n1`, the IC50 [1] is reported as > 1000 nM.

Work on `FC(F)(F)c1cnc(Nc2ccc3nc[nH]c3c2)nc1Nc1ccc(Cl)cc1` yielded an IC50 [1] of 4 nM.

`FC(F)(F)c1cnc(Nc2ccc3[nH]cnc3c2)nc1Nc1ccc2[nH]cnc2c1` gave an IC50 [1] of 10 nM.

Work on `FC(F)(F)c1cnc(Nc2ccc3[nH]cnc3c2)nc1OC1CCCCC1` yielded an IC50 [1] of 43 nM.

For `FC(F)(F)c1cnc(Nc2ccc3nc[nH]c3c2)nc1Nc1cccc(Cl)c1`, the IC50 [1] was 3 nM.

For `FC(F)(F)c1cnc(Nc2ccccc2Cl)nc1Nc1ccc2nc[nH]c2c1`, the IC50 [1] was > 1000 nM.

For `FC(F)(F)c1cnc(Nc2ccc3nc[nH]c3c2)nc1Oc1ccc(Br)cc1`, the IC50 [1] was 562 nM.

Work on `Fc1cnc(Nc2ccc3nc[nH]c3c2)nc1Nc1ccc2nc[nH]c2c1` yielded an IC50 [1] of 430 nM.

In the case of `Brc1cnc(Nc2ccc3nc[nH]c3c2)nc1Nc1ccc(Oc2cccnc2)cc1`, the IC50 [1] is reported as 34 nM.

`Cc1ccccc1Sc1nc(Nc2ccc3[nH]cnc3c2)ncc1C(F)(F)F` showed an IC50 [1] of 135 nM.

`CCOc1nc(Nc2ccc3nc[nH]c3c2)ncc1C(F)(F)F` gave an IC50 [1] of 77 nM.

For `NS(=O)(=O)c1ccc(Nc2ncc(C(F)(F)F)c(Nc3ccc4nc[nH]c4c3)n2)cc1`, the IC50 [1] was 0.1 nM.

With `FC(F)(F)c1cnc(Nc2ccc3[nH]cnc3c2)nc1Nc1ccccc1Cl` the IC50 [2] was > 1000 nM, the IC50 [3] was 290 nM and the IC50 [4] was > 1000 nM. The IC50 [5] was 510 nM.

In the case of `c1cc(Nc2ccc3[nH]ccc3c2)nc(Nc2ccc3[nH]ccc3c2)n1`, the IC50 [1] is reported as > 1000 nM.

In the case of `COc1cccc(Sc2nc(Nc3ccc4nc[nH]c4c3)ncc2C(F)(F)F)c1`, the IC50 [1] is reported as > 1000 nM.

For `Fc1ccc(Nc2nc(Nc3ccc4[nH]cnc4c3)ncc2Br)cc1`, the IC50 [1] was 4 nM.

Molecule `FC(F)(F)c1cnc(Nc2ccc3nc[nH]c3c2)nc1Oc1ccc(Cl)cc1` has an IC50 [1] of 252 nM.

For `CN(c1cccc(Cl)c1)c1ncc(C(F)(F)F)c(Nc2ccc3nc[nH]c3c2)n1`, the IC50 [1] was > 1000 nM.

`Brc1cnc(Nc2ccc(Oc3cccnc3)cc2)nc1Nc1ccc2nc[nH]c2c1` showed an IC50 [1] of 248 nM.

For `Brc1cnc(Nc2ccc3nc[nH]c3c2)nc1NC1CCCc2ccccc21` (centres undefined), the IC50 [1] was 392 nM.

For `FC(F)(F)c1ccc(Nc2ncc(C(F)(F)F)c(Nc3ccc4nc[nH]c4c3)n2)cc1`, the IC50 [1] was 15 nM.

With `FC(F)(F)c1cnc(Nc2ccc(Br)cc2)nc1Nc1ccc2[nH]cnc2c1` the IC50 [2] was > 1000 nM, the IC50 [3] was 190 nM and the IC50 [4] was 750 nM. For the same molecule, the IC50 [6] was 260 nM and 1200 nM, the IC50 [7] was 73 nM and the IC50 [1] was 11 nM. For the same molecule, the IC50 [5] was 91 nM.

For `Brc1cnc(Nc2ccc3[nH]ccc3c2)nc1Nc1ccc2[nH]ccc2c1`, the IC50 [1] was > 1000 nM.

In the case of `Fc1cnc(Nc2ccc3[nH]ccc3c2)nc1Nc1ccc2[nH]ccc2c1`, the IC50 [1] is reported as > 1000 nM.

Molecule `Fc1ccc(Oc2nc(Nc3ccc4[nH]cnc4c3)ncc2C(F)(F)F)cc1` has an IC50 [1] of 32 nM.

Work on `Brc1cnc(Nc2ccc3[nH]cnc3c2)nc1NC1CCc2ccccc21` (centres undefined) yielded an IC50 [1] of 34 nM.

`Cc1ccccc1Oc1nc(Nc2ccc3[nH]cnc3c2)ncc1C(F)(F)F` gave an IC50 [1] of 4 nM.

In the case of `FC(F)(F)c1cnc(Nc2ccc3[nH]ccc3c2)nc1Nc1ccc2[nH]ccc2c1`, the IC50 [1] is reported as > 1000 nM.

Molecule `Clc1cccc(Nc2ncc(Br)c(Nc3ccc4nc[nH]c4c3)n2)c1` has an IC50 [1] of 9 nM.

`COc1cccc(Oc2nc(Nc3ccc4nc[nH]c4c3)ncc2C(F)(F)F)c1` gave an IC50 [1] of 160 nM.

In the case of `COc1ccc(Nc2nc(Nc3ccc4[nH]cnc4c3)ncc2C(F)(F)F)cc1`, the IC50 [2] is reported as > 1000 nM, the IC50 [3] is reported as 33 nM and the IC50 [4] is reported as > 1000 nM. The IC50 [6] was 57 nM and 230 nM, the IC50 [7] was 31 nM and the IC50 [1] was 8 nM. For the same molecule, the IC50 [5] was 11 nM.

Work on `Brc1cnc(Nc2ccc3[nH]cnc3c2)nc1Nc1ccc2c(c1)OCO2` yielded an IC50 [1] of 9 nM.

With `Brc1cnc(Nc2ccc3nc[nH]c3c2)nc1Nc1ccc2nc[nH]c2c1` the IC50 [1] was 14 nM.

With `FC(F)(F)c1cnc(Nc2cccc(Cl)c2)nc1Nc1ccc2[nH]cnc2c1` the IC50 [1] was 22 nM.

In the case of `Cc1cccc(Nc2ncc(C(F)(F)F)c(Nc3ccc4nc[nH]c4c3)n2)c1`, the IC50 [1] is reported as 15 nM.
